Measurements reported in article PMC10504751, “Chalcone/1,3,4-Oxadiazole/Benzimidazole hybrids as novel anti-proliferative agents inducing apoptosis and inhibiting EGFR & BRAFV^600E” (BMC Chemistry, 2023).

Legend:
[1] = tested on: EKVX; test: NCI one-dose SRB anti-proliferative screen; type: cell-based; conditions: Homo sapiens; EKVX, Non-Small Cell Lung Cancer; NCI one dose; read-out: Cell growth inhibition %
Description: (§1) The twenty-four synthesized compounds were submitted to the National Cancer Institute (NCI), USA. Eighteen hybrids 7a-h, 7k-r, 7u, and 7v were selected by NCI for one-dose assessment of their anti-proliferative activities at 10 µM dose by Sulforhodamine B colorimetric assay. The assessment was performed in 60 cell lines derived from nine tumor subpanels, comprising lung, leukemia, melanoma, colon, renal, CNS, prostate, breast, and ovarian cancer cell lines.
(§2) The methodology of the NCI anti-proliferative screening has been described in details elsewhere (http://www.dtp.nci.nih.gov).

[2] = tested on: HOP-62; test: NCI one-dose SRB anti-proliferative screen; type: cell-based; conditions: Homo sapiens; HOP-62, Non-Small Cell Lung Cancer; NCI one dose; read-out: Cell growth inhibition %
Description: as §1, §2

[3] = tested on: UACC-62; test: NCI one-dose SRB anti-proliferative screen; type: cell-based; conditions: Homo sapiens; UACC-62, Melanoma; NCI one dose; read-out: Cell growth inhibition %
Description: as §1, §2

[4] = tested on: A-549; test: Propidium iodide anti-proliferative assay; type: cell-based; conditions: Homo sapiens, A549; 48 h incubation; read-out: IC50 ± SEM A-549
Description: (§3) The propidium iodide (PI) tests^31, 32 were further used for assessment of the IC50 of all synthesized compounds and compared to Doxorubicin as a positive control against four cancer cell lines; pancreatic cancer cell line (Panc-1), epithelial line cancer cell (A-549), breast cancer cell line (MCF-7), and colon cancer cell line (HT-29).
(§4) Using the propidium iodide fluorescence assay with doxorubicin as the reference drug, IC50 of the 24 compounds 7a-x, was carried out according to a previously reported procedure^31, 32 against a panel of four human cancer cell lines; epithelial cancer cell line (A-549), breast cancer cell line (MCF-7), colon cancer cell line (HT-29) and pancreas cancer cell line (Panc-1). Compounds 7a-x were incubated with cancer cells for 2 days at different concentrations. See Appendix A.
(§5) To explore the antiproliferative potential of compounds propidium iodide fluorescence assay was performed using different cell lines (melanoma cancer cell line LOX-IMVI, pancreatic cancer cell line (Panc-1), epithelial line cancer cell (A-549), breast cancer cell line (MCF-7), and colon cancer cell line (HT-29). To calculate the total nuclear DNA, a fluorescent dye (propidium iodide, PI) is used which can attach to the DNA,^9,^10 thus offering a quick and precise technique. PI cannot pass through the cell membrane and its signal intensity can be considered as directly proportional to the quantity of cellular DNA. Cells whose cell membranes are damaged or have changed permeability are counted as dead ones. The assay was performed by seeding the cells of different cancer cell lines at a density of 3000-7500 cells/well (in 200µl medium) in culture plates followed by incubation for 24h at 37 °C in humidified 5% CO2/95% air atmospheric conditions. The medium was removed; the compounds were added to the plates at 10 µM concentrations (in 0.1% DMSO) in triplicates, followed by incubation for 48 h. DMSO (0.1%) was used as control. After incubation, medium was removed followed by the addition of PI (25 µl, 50µg/mL in water/medium) to each well of the plates. At -80 °C, the plates were allowed to freeze for 24 h, followed by thawing at 25 °C. A fluorometer (Polar-Star BMG Tech) was used to record the readings at excitation and emission wavelengths of 530 and 620 nm for each well. The percentage cytotoxicity of compounds was calculated using the following formula:
(§6) Where ATC= Absorbance of treated cells and AC= Absorbance of control. […]

[5] = tested on: MCF-7; test: Propidium iodide anti-proliferative assay; type: cell-based; conditions: Homo sapiens, MCF7; 48 h incubation; read-out: IC50 ± SEM MCF-7
Description: as §3, §4, §5, §6

[6] = tested on: HT-29; test: Propidium iodide anti-proliferative assay; type: cell-based; conditions: Homo sapiens, 48 h incubation, read-out: IC50 ± SEM HT-29
Description: as §3, §4, §5, §6

[7] = tested on: Panc-1; test: Propidium iodide anti-proliferative assay; type: cell-based; conditions: Homo sapiens, 48 h incubation, read-out: IC50 ± SEM Panc-1
Description: as §3, §4, §5, §6

[8] = tested on: K-562; test: NCI one-dose SRB anti-proliferative screen; type: cell-based, human; conditions: for inhibition at 10 µM: Homo sapiens, K562, K-562, Leukemia, NCI one dose, read-out: Cell growth inhibition %
Description: as §1, §2

[9] = tested on: RXF 393; test: NCI one-dose SRB anti-proliferative screen; type: cell-based, human; conditions: for inhibition at 10 µM: Homo sapiens, RXF 393, Renal cancer, NCI one dose, read-out: Cell growth inhibition %
Description: as §1, §2

[10] = tested on: MOLT-4; test: NCI one-dose SRB anti-proliferative screen; type: cell-based, human; conditions: for inhibition at 10 µM: Homo sapiens, MOLT-4, Leukemia, NCI one dose, read-out: Cell growth inhibition %
Description: as §1, §2

[11] = tested on: HCT-116; test: NCI one-dose SRB anti-proliferative screen; type: cell-based, human; conditions: for inhibition at 10 µM: Homo sapiens, HCT-116, Colon cancer, NCI one dose, read-out: Cell growth inhibition %
Description: as §1, §2

[12] = tested on: T-47D; test: NCI one-dose SRB anti-proliferative screen; type: cell-based, human; conditions: for inhibition at 10 µM: Homo sapiens, T47D, T-47D, Breast cancer, NCI one dose, read-out: Cell growth inhibition %
Description: as §1, §2

[13] = MTT cell viability assay in normal cells; type: cell-based; conditions: human, MCF-10A normal mammary epithelial cells
Description: To check the safety of prepared compounds and evaluate their selectivity towards tumor cells over normal ones, the toxicity of compounds 7a-x were evaluated by 3-(4,5-Dimethylthiazole-2-yl)-2,5-diphenyltetrazol (MTT) assay on the normal human mammary epithelial cell line (MCF-10 A). The human mammary epithelial cell lines were incubated for four days with a concentration of 50 µM of compounds 7a-x.
MTT assay was done to determine the effect of the synthesized compounds on the viability of mammary epithelial cells (MCF-10 A). Compounds 7a-x were incubated with MCF-10 A cells for 4 days at 50 µM concentration, and the viability of cells was determined. See Appendix A.
MTT assay was carried out to study the effect of compounds on mammary epithelial cells (MCF-10A).^7, ^8 The medium in which cells were propagated contained Dulbecco's modified Eagle's medium (DMEM)/ Ham's F-12 medium (1:1) supplemented with epidermal growth factor (20 ng/mL), hydrocortisone (500 ng/mL), insulin (10 μg/mL), 2 mM glutamine and 10% foetal calf serum. After every 2-3 days, the cells were passaged using trypsin ethylenediamine tetra acetic acid (EDTA). The cells were seeded at a density of 10^4 cells mL^-1 in flat-bottomed culture plates containing 96 wells each. After 24 h, medium was removed from the plates and the compounds in (in 0.1% DMSO) were added (in 200 μL medium to yield a final concentration of 0.1% v/v) to the wells of plates. A single compound was designated with four wells followed by incubation of plates for 96h at 37°C. After incubation, medium was removed completely from the plates followed by addition of MTT (0.4 mg/mL in medium) to each well and subsequent incubation of plates for 3h. MTT (along with the medium) was removed and DMSO (150μL) was added to each well of the culture plates, followed by vortexing and subsequent measurement of absorbance (at 540 nm) using microplate reader.

SMILES | inhibition at 10 µM [1] [%] | inhibition at 10 µM [2] [%] | inhibition at 10 µM [3] [%] | IC50 [4] [µM] | IC50 [5] [µM] | IC50 [6] [µM] | IC50 [7] [µM] | inhibition at 10 µM [8] [%] | inhibition at 10 µM [9] [%] | inhibition at 10 µM [10] [%] | inhibition at 10 µM [11] [%] | inhibition at 10 µM [12] [%] | Growth Percent ([12]; T-47D (Breast Cancer), 10 µM one dose) [%] | viability at 96 h, 50 µM [13] [%] | melting point [°C] | Growth Percent ([8]; K-562 (Leukemia), 10 µM one dose) [%] | Growth Percent ([9]; RXF 393 (Renal Cancer), 10 µM one dose) [%] | Growth Percent ([10]; MOLT-4 (Leukemia), 10 µM one dose) [%] | Growth Percent ([11]; HCT-116 (Colon Cancer), 10 µM one dose) [%]
COc1ccc(/C=C/C(=O)c2ccc(NC(=O)CSc3nnc(-c4ccc5[nH]c(-c6ccccc6)nc5c4)o3)cc2)cc1 [Compound 7c, 2-{5-[2-Phenyl-1 H-benzo[d]imidazol-5-yl]-1,3,4-oxadiazol-2-ylthio}-N-{4-[(E)-3-(4-methoxyphenyl)acryloyl]phenyl}acetamide] | 0 | 0 | 9.5 | 4.7 ± 0.5 | 4.15 ± 0.5 | 5.5 ± 0.5 | 5.2 ± 0.4 | 3.83 | 8.38 | 23.9 | 15.1 | 47.6 | 52.35 | 87 | 175 to 177 |  |  |  | 
COc1ccc(/C=C/C(=O)c2ccc(NC(=O)CSc3nnc(-c4ccc5[nH]c(-c6ccccc6)nc5c4)o3)cc2)cc1OC [Compound 7d, 2-{5-[2-Phenyl-1 H-benzo[d]imidazol-5-yl]-1,3,4-oxadiazol-2-ylthio}-N-{4-[(E)-3-(3,4-dimethoxyphenyl)acryloyl]phenyl}acetamide] | 0 | 0 | 5.31 | 9.7 ± 1.1 | 8.9 ± 1.1 | 11.1 ± 1.4 | 10.3 ± 1.3 | 0 | 0 | 7.24 | 6.47 | 2.51 |  | 89 | 156 to 158 |  |  |  | 
COc1cc(/C=C/C(=O)c2ccc(NC(=O)CSc3nnc(-c4ccc5[nH]c(-c6ccccc6)nc5c4)o3)cc2)cc(OC)c1OC [Compound 7e, 2-{5-[2-Phenyl-1 H-benzo[d]imidazol-5-yl]-1,3,4-oxadiazol-2-ylthio}-N-{4-[(E)-3-(3,4,5-trimethoxyphenyl)acryloyl]phenyl}acetamide] | 0.96 | 0 | 17 | 1.6 ± 0.3 | 1.25 ± 0.08 | 1.95 ± 0.3 | 1.7 ± 0.3 | 41.7 | 107 | 35 | 59.2 | 11.1 |  | 87 | 143 to 144 | 58 | -6.89 | 30 | 40.76
